Results: patent publication US9266835B2, “Quinoline derivatives useful as CB-1 inverse agonists” (JANSSEN PHARMACEUTICA NV, priority 2014, dated 2016)
pEC50: −log10 of the molar value.

Molecular target: Human CB2R (Cannabinoid receptor 2) (Homo sapiens (Human), UniProt P34972)
Test: CB-2 in vitro cAMP assay (HTRF), inverse agonism
Format: cell-based
Conditions: mean where tested more than once

Sequence of Human CB2R (Cannabinoid receptor 2) (P34972 whole entry): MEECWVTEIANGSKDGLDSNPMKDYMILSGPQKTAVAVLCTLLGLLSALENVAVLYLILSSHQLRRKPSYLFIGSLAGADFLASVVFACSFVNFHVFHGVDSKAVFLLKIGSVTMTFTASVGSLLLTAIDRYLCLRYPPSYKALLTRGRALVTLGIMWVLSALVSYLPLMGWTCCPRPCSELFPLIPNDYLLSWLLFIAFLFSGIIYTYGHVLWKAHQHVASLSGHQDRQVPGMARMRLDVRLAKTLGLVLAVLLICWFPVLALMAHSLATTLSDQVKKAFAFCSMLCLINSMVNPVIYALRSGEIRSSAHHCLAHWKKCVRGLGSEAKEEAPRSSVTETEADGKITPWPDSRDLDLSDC

O=c1cc(NC2CCN(S(=O)(=O)C(F)(F)F)CC2)c2cc(C(c3ccc(Cl)cc3)c3ccc(Cl)cc3)ccc2[nH]1 [Compound #44, 6-(bis(4-chlorophenyl)methyl)-4-(1-(trifluoromethylsulfonyl)piperidin-4-ylamino)quinolin-2(1H)-one]
pEC50: 5.28
